Values after ≈ are worked out from the molar mass of the structure shown. Like-named read-outs stand apart in the source and are kept apart here. Ends that are not written are not given here.
Experiments:
[1] = tested on: Acinetobacter baumannii ATCC BAA-1797 (MDR); experiment: microbe, parasite or virus in culture; type: cell-based
Procedure: (§1) Each peptide was formulated in PBS buffer prior to testing. Peptides of SEQ ID NO:5 and SEQ ID NO:8 were brought up in 100% DMSO with 0.002% polysorbate-80 at 1.28 mg/mL (40× the highest final test concentration of 32 mcg/mL). Final test concentration of DMSO was 2.5% in the assay at the first dilution for those two compounds.
(§2) Mueller Hinton II broth (MHB II; BD; Lot Nos. 6258541 and 7143896) was used for MIC testing of aerobic organisms. 0.002% polysorbate 80 (P80) was added to the test medium.
(§3) MIC values were determined using a broth microdilution procedure described by CLSI (1, 3). Automated liquid handlers (Multidrop 384, Labsystems, Helsinki, Finland; Biomek 2000 and Biomek FX, Beckman Coulter, Fullerton Calif.) were used to conduct serial dilutions and liquid transfers.
(§4) To prepare the drug mother plates, which would provide the serial peptide dilutions for the replicate daughter plates, the wells of columns 2-12 of standard 96-well microdilution plates (Costar 3795) were filled with 150 µl of the designated diluent for each row of peptide.
(§5) The test articles and comparator compounds ([…] at 40× the highest concentration to be tested) were dispensed into the appropriate wells in column 1. The Biomek 2000 was then used to make 2-fold serial dilutions in the mother plates from column 1 through column 11. The wells of Column 12 contained no drug and served as the organism growth control wells for the assay.
(§6) The daughter plates were loaded with 185 μL per well of MHB II using the Multidrop 384. The daughter plates were completed on the Biomek FX instrument which transferred 5 uL of peptide solution from each well of a mother plate to the corresponding well of each daughter plate in a single step. A standardized inoculum of each test organism was prepared per CLSI methods. The inoculum for each organism was dispensed into sterile reservoirs divided by length (Beckman Coulter), and the Biomek 2000 was used to inoculate the plates. Daughter plates were placed on the Biomek 2000 work surface in reverse orientation so that inoculation took place from low to high drug concentration.
(§7) Plates were stacked 3-4 high, covered with a lid on the top plate, placed in plastic bags, and incubated at 35° C. for 16 to 20 hrs. Following incubation, the microplates were removed from the incubator and viewed from the bottom using a plate viewer. […] The MIC was read and recorded as the lowest concentration of peptide that inhibited visible growth of the organism.

[2] = tested on: Staphylococcus aureus NRS382 (USA100; HA-MRSA); type: cell-based; conditions: USA100
Procedure: as §1, §2, §3, §4, §5, §6, §7

[3] = tested on: Escherichia coli ATCC 35218 (ESBL); type: cell-based; conditions: ATCC 35218
Procedure: as §1, §2, §3, §4, §5, §6, §7

[4] = tested on: Enterococcus faecalis ATCC 700802 (V583 VRE); type: cell-based; conditions: ATCC 700802
Procedure: as §1, §2, §3, §4, §5, §6, §7

[5] = tested on: Escherichia coli ATCC 25922 (QC); type: cell-based; conditions: ATCC 25922
Procedure: as §1, §2, §3, §4, §5, §6, §7

[6] = tested on: Pseudomonas aeruginosa ATCC 27853 (non-MDR; QC); type: cell-based; conditions: ATCC 27853
Procedure: as §1, §2, §3, §4, §5, §6, §7

[7] = tested on: Staphylococcus aureus ATCC 29213 (MSSA; QC); type: cell-based; conditions: ATCC 29213
Procedure: as §1, §2, §3, §4, §5, §6, §7

[8] = tested on: Streptococcus pyogenes ATCC 49399; type: cell-based; conditions: ATCC 49399
Procedure: as §1, §2, §3, §4, §5, §6, §7

[9] = tested on: Enterococcus faecalis ATCC 29212 (VSE; QC); type: cell-based; conditions: ATCC 29212
Procedure: as §1, §2, §3, §4, §5, §6, §7

[10] = tested on: Staphylococcus aureus ATCC 43300 (MRSA); type: cell-based; conditions: ATCC 43300
Procedure: as §1, §2, §3, §4, §5, §6, §7

[11] = tested on: Enterococcus faecium ATCC 51559 (VRE); type: cell-based; conditions: ATCC 51559
Procedure: as §1, §2, §3, §4, §5, §6, §7

[12] = tested on: Pseudomonas aeruginosa ATCC BAA-2109 (MDR); type: cell-based; conditions: ATCC BAA-2109
Procedure: as §1, §2, §3, §4, §5, §6, §7

[13] = tested on: Klebsiella pneumoniae ATCC BAA-1705 (KPC); type: cell-based; conditions: ATCC BAA-1705
Procedure: as §1, §2, §3, §4, §5, §6, §7

[14] = tested on: Acinetobacter baumannii ATCC 19606 (non-MDR); type: cell-based; conditions: ATCC 19606
Procedure: as §1, §2, §3, §4, §5, §6, §7

[15] = tested on: Escherichia coli ATCC BAA-2471 (NDM-1); type: cell-based; conditions: ATCC BAA-2471
Procedure: as §1, §2, §3, §4, §5, §6, §7

[16] = tested on: Streptococcus pneumoniae ATCC 49619 (QC); type: cell-based; conditions: ATCC 49619
Procedure: as §1, §2, §3, §4, §5, §6, §7

[17] = tested on: P. aeruginosa strains (PAO1 and 2 clinical isolates); type: cell-based; conditions: three P. aeruginosa strains, 0.5×MIC exposure
Text: Each antibiotic was compared for their propensity to select for bacterial resistance phenotypes in vitro.

S. aureus = experiment: Periprosthetic joint infection mouse model, implant biofilm CFU burden; type: in vivo; conditions: intraperitoneal delivery, versus untreated control mice
Procedure: Periprosthetic joint infection was modeled in a mouse by placing an intra-articular K-wire through the medullary canal of the proximal femur followed by intra-articular inoculation with S. aureus. Animals were treated systemically with an intraperitoneal delivery of cefazolin, rifampin, or the exemplary peptide of SEQ ID NO:1. Intraperitoneal delivery was chosen due to technical difficulties associated with intravenous delivery. Implant sonication and proximal femur homogenate were used to quantify viable bacteria.

[18] = tested on: Staphylococcus aureus (n = 104); experiment: microbe, parasite or virus in culture; type: cell-based; conditions: Staphylococcus aureus (n = 104); for % R (isolates resistant): CLSI breakpoints
Procedure: (§8) The clinical isolates were obtained from USA hospitals. […] Plates were incubated at 35° C. overnight.

[19] = tested on: Klebsiella pneumoniae (n = 101); type: cell-based
Procedure: as §8

[20] = tested on: Acinetobacter spp. (n = 104); type: cell-based; conditions: Acinetobacter spp. (n = 104), CLSI breakpoints
Procedure: as §8

[21] = tested on: Escherichia coli (n = 101); type: cell-based; conditions: Escherichia coli (n = 101), CLSI breakpoints, colistin EUCAST
Procedure: as §8

[22] = tested on: Pseudomonas aeruginosa (n = 109); type: cell-based; conditions: Pseudomonas aeruginosa (n = 109), CLSI breakpoints
Procedure: as §8

[23] = tested on: Enterobacter spp. (n = 102); type: cell-based, Enterobacter aerogenes and E. cloacae; conditions: Enterobacter spp. (n = 102), CLSI breakpoints, colistin EUCAST
Procedure: as §8

MIC ([1]; ATCC BAA-1797) [µg/mL] | MIC [2] [µg/mL] | MIC [3] [µg/mL] | MIC [4] [µg/mL] | MIC [5] [µg/mL] | MIC [6] [µg/mL] | MIC [7] [µg/mL] | MIC [8] [µg/mL] | MIC [9] [µg/mL] | MIC [10] [µg/mL] | MIC [11] [µg/mL] | MIC [12] [µg/mL] | MIC [13] [µg/mL] | MIC [14] [µg/mL] | MIC [15] [µg/mL] | MIC [16] [µg/mL] | Compound | other results
8 | 4 | 8 | 8 | 4 | 8 | 8 | 16 | 8 | 4 | 4 | 4 | 32 | 8 | 4 | 16 | IRRIIRRIRRIIRRIRRIIRR [SEQ ID NO: 4] | –
– | – | – | – | – | – | – | – | – | – | – | – | – | – | – | – | CO[C@H]1/C=C/O[C@@]2(C)Oc3c(C)c(O)c4c(O)c(c(/C=N/N5CCN(C)CC5)c(O)c4c3C2=O)NC(=O)/C(C)=C\C=C\[C@H](C)[C@H](O)[C@@H](C)[C@@H](O)[C@@H](C)[C@H](OC(C)=O)[C@@H]1C [Rifampin] | Time to development of resistance (fold MIC>10) [17]: ≤ 3 days; Reduction of implant biofilm CFU burden (sonicate culture) (S. aureus): comparable reduction in biofilms sonicate as compared to SEQ ID NO:1
>32 | >32 | >32 | 4 | >32 | >32 | >32 | 16 | 4 | 32 | 0.25 | 16 | >32 | 32 | >32 | >32 | VVRVVRVVVRVVRVVVRVVRV [SEQ ID NO: 8] | –
16 | 8 | 4 | >32 | 4 | 4 | 8 | 16 | 32 | 8 | 4 | 2 | 32 | 8 | 4 | 32 | IRRRIRRIRRRIRRIRRRIRR [SEQ ID NO: 3] | –
0.5 | 0.5 | 1 | 4 | 2 | 16 | 0.5 | 4 | 2 | 0.5 | 0.5 | 8 | 4 | 0.5 | 1 | 8 | VWRWVRRVWRWVRR [SEQ ID NO: 6] | –
32 | 8 | 16 | 16 | 16 | >32 | 16 | 32 | 16 | 8 | 8 | 16 | >32 | 16 | 32 | 32 | VWRWVRRVWRWVRRVWRWVRR [SEQ ID NO: 5] | –
>32 | >32 | 32 | >32 | >32 | >32 | >32 | 16 | >32 | >32 | 16 | >32 | >32 | >32 | 16 | >32 | VVRVVRRVVRVVRR [SEQ ID NO: 7] | –
– | – | – | – | – | – | – | – | – | – | – | – | – | – | – | – | C[C@H]1COc2c(N3CCN(C)CC3)c(F)cc3c(=O)c(C(=O)O)cn1c23 [Levofloxacin] | MIC ([1]; ATCCBAA1797, Acinetobacter baumannii ATCC BAA-1797 (MDR), read-out: MIC): 4 µg/mL (≈ 11.1 µM); MIC90 [18]: >8 µg/mL; % R (isolates resistant) [18]: 82.7%; % R (isolates resistant) ([18]; listed as levofloxacin): Over 80%; % R (isolates resistant) [19]: over 60%; % R (isolates resistant) ([19]; Klebsiella pneumoniae (n = 101), CLSI breakpoints, colistin EUCAST): 67.3%; % R (isolates resistant) [20]: 66.3%; % R (isolates resistant) [21]: 46.5%; % R (isolates resistant) ([21]; listed as levofloxacin): ~50%; % R (isolates resistant) [22]: 21.1%; % R (isolates resistant) [23]: 4.9%
>32 | 8 | 16 | >32 | 16 | >32 | 16 | 32 | >32 | 16 | 16 | 8 | >32 | 32 | 32 | >32 | IRRRRRRIRRRRRR [SEQ ID NO: 2] | –
– | – | – | – | – | – | – | – | – | – | – | – | – | – | – | – | LL-37 [LL37] | Time to development of resistance (fold MIC>10) [17]: 9 days
